Source: ChEMBL document CHEMBL4808184, “Discovery and Optimization of DNA Gyrase and Topoisomerase IV Inhibitors with Potent Activity against Fluoroquinolone-Resistant Gram-Positive Bacteria” (J Med Chem, 2021)
≈ marks a conversion by molar mass, not a printed value.

Legend:
Streptococcus pneumoniae = assay: microbe, parasite or virus in culture; conditions: ATCC 49619
in vitro [1] = conditions: Sprague-Dawley, rat, plasma
in vitro [2] = conditions: human, Caco-2
in vitro [3] = conditions: human, plasma
hERG (KCNH2) = hERG (KCNH2) (Homo sapiens, UniProt Q12809); assay: in vitro; conditions: CHO-K1 cells expressing human ERG
Sequence of hERG (KCNH2) (Q12809 whole entry): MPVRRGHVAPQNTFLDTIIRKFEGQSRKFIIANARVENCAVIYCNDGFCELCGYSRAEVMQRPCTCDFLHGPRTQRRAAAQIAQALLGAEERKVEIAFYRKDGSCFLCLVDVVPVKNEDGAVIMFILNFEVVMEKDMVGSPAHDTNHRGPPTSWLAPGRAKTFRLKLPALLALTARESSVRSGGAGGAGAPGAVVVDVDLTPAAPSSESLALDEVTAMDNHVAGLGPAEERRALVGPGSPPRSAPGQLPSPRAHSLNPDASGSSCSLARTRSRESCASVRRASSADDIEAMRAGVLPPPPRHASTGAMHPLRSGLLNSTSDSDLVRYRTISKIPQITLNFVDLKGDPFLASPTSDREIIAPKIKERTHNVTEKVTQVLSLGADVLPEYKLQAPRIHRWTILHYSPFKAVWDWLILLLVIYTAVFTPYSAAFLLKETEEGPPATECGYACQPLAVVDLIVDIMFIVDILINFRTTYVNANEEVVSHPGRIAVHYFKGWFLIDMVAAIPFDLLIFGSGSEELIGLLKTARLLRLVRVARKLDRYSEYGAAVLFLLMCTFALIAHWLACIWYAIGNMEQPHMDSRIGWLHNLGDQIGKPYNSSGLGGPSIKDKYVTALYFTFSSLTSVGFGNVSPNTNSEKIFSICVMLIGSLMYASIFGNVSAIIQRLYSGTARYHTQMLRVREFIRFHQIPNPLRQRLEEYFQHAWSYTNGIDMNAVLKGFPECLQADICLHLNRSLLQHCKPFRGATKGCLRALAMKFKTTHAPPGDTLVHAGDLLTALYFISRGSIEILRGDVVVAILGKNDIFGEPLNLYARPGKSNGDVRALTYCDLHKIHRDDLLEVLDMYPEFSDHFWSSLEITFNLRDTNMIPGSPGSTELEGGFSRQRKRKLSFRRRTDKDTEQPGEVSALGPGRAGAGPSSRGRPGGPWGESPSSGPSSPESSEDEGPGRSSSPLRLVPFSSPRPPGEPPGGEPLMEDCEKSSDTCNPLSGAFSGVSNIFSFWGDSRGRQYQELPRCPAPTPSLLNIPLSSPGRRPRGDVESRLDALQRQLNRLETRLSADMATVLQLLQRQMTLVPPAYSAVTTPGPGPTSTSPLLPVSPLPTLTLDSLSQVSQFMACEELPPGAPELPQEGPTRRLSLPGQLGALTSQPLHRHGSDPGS

K562 = assay: cells; conditions: Homo sapiens, K562, 72 h
Staphylococcus aureus [4] = assay: microbe, parasite or virus in culture; conditions: ATCC 49951
Enterococcus faecalis = assay: microbe, parasite or virus in culture; conditions: ATCC 29212
Staphylococcus aureus [5] = assay: microbe, parasite or virus in culture; conditions: ATCC 49951; remark: listed apart in the source
in vivo [6] = conditions: rat, po, 5 mg/kg
physchem [7] = assay: physchem
in vitro [8] = conditions: human, Caco-2; remark: listed apart in the source
in vivo [9] = conditions: rat, 5 mg/kg
in vivo [10] = conditions: rat, 5 mg/kg; remark: listed apart in the source
in vivo [11] = conditions: rat, po, 5 mg/kg; remark: listed apart in the source
in vivo [12] = conditions: rat, iv
physchem [13] = conditions: buffer, pH 7
physchem [14] = conditions: octanol/water, pH 7.4
in vitro [15] = conditions: CD1, mouse, plasma
HepG2 = assay: cells; conditions: Homo sapiens, HepG2, 72 h
in vivo [16] = conditions: rat, po, 5 mg/kg; remark: listed apart in the source
in vivo [17] = conditions: rat, po, 5 mg/kg; remark: listed apart in the source
Staphylococcus aureus [18] = assay: microbe, parasite or virus in culture; conditions: ATCC 49951; remark: listed apart in the source
in vivo [19] = conditions: mouse, po, 5 mg/kg
in vivo [20] = conditions: mouse, po, 5 mg/kg; remark: listed apart in the source
in vivo [21] = conditions: mouse, iv
in vivo [22] = conditions: dog, 1 mg/kg
in vivo [23] = conditions: dog, iv, 0.125 mg/kg
in vivo [24] = conditions: mouse, po, 5 mg/kg; remark: listed apart in the source
in vivo [25] = conditions: dog, po, 1 mg/kg
in vivo [26] = conditions: mouse, po, 5 mg/kg; remark: listed apart in the source
in vivo [27] = conditions: dog, po, 1 mg/kg; remark: listed apart in the source
in vivo [28] = conditions: dog, po, 1 mg/kg; remark: listed apart in the source
in vivo [29] = conditions: mouse, 5 mg/kg
in vivo [30] = conditions: rat, po, 3 mg/kg
in vivo [31] = conditions: rat, po, 3 mg/kg; remark: listed apart in the source
in vivo [32] = conditions: rat, iv, 1 mg/kg
physchem [33] = assay: physchem; remark: listed apart in the source
in vivo [34] = conditions: rat, po, 3.35 mg/kg
in vivo [35] = conditions: rat, po, 3.35 mg/kg; remark: listed apart in the source
in vivo [36] = conditions: rat, iv, 3.35 mg/kg
in vivo [37] = conditions: rat, po, 3.35 mg/kg; remark: listed apart in the source
in vivo [38] = conditions: rat, iv, 3.35 mg/kg; remark: listed apart in the source
in vivo [39] = conditions: rat, po, 3.35 mg/kg; remark: listed apart in the source

SMILES | MIC (Streptococcus pneumoniae) [µg/mL] | fraction unbound at 4 h, 10 µM (in vitro [1]) | Papp A→B at 2 h, 10 µM (in vitro [2]) [×10⁻⁶ cm/s] | fraction unbound at 4 h, 10 µM (in vitro [3]) | EC50 (K562) [µM] | MIC (Staphylococcus aureus [4]) [µg/mL] | MIC (Enterococcus faecalis) [µg/mL] | MIC (Staphylococcus aureus [5]) [µg/mL] | bioavailability at 24 h (in vivo [6]) [%] | pKa (physchem [7]) | efflux ratio (in vitro [8]) | Vd at 24 h (in vivo [9]) [L/kg] | Cmax at 24 h (in vivo [11]) [nM] | half-life at 24 h (in vivo [12]) [h] | logD (physchem [14]) | fraction unbound at 4 h, 10 µM (in vitro [15]) | EC50 (HepG2) [µM] | AUC(0-inf) at 24 h (in vivo [16]) [µM·h] | Tmax at 24 h (in vivo [17]) [h] | MIC (Staphylococcus aureus [18]) [µg/mL] | other results
C[C@H](N)[C@@H]1CCN(c2c(F)cc3cc(C(=O)O)c(=O)n4c3c2OC[C@@H]4C)C1 | ≤ 0.03 | 0.72 | 2.7 | 0.8 | > 100 | 2 (≈ 5.33 µM) | 0.25 (≈ 0.666 µM) | 1 (≈ 2.66 µM) | 66 | 5 | 1.7 | 1.75 | 540 | 3.02 | -1.1 | 0.94 | > 100 | 1.6 | 0.83 | 0.125 (≈ 0.333 µM) | inhibition at 300 µM (hERG (KCNH2)): 8.3%; clearance at 24 h (in vivo [10]): 18.5 mL/min/kg; solubility at 24 h (physchem [13]): 675 µg/mL (≈ 1800 µM)
Cc1c(N2CC[C@@H]([C@H](C)N)C2)c(F)cc2ccc(=O)n(C3CC3)c12 | ≤ 0.03 | – | – | – | – | 0.06 (≈ 0.182 µM) | 0.125 (≈ 0.379 µM) | ≤ 0.03 | – | 9.6 | – | – | – | – | – | – | 93 | – | – | ≤ 0.06 | –
C[C@H]1COc2c(N3CC[C@@H](C4(N)CC4)C3)c(F)cc3cc(C(=O)O)c(=O)n1c23 | 0.06 (≈ 0.155 µM) | 0.63 | 20 | 0.76 | > 100 | 2 (≈ 5.16 µM) | 0.25 (≈ 0.645 µM) | 0.5 (≈ 1.29 µM) | 65 | 4.9 | 0.9 | 1.09 | 1350 | 4.64 | -0.9 | 0.87 | > 100 | 8.68 | 2.7 | 0.25 (≈ 0.645 µM) | Tmax at 24 h (in vivo [19]): 2 h; Cmax at 24 h (in vivo [20]): 490 nM; half-life at 24 h (in vivo [21]): 3.36 h; Vd at 24 h (in vivo [22]): 1.91 L/kg; half-life at 24 h (in vivo [23]): 9.95 h; bioavailability at 24 h (in vivo [24]): 92%; AUC(0-inf) at 24 h (in vivo [25]): 19 µM·h; inhibition at 300 µM (hERG (KCNH2)): 27%; AUC(0-inf) at 24 h (in vivo [26]): 4.3 µM·h; Tmax at 24 h (in vivo [27]): 4 h; clearance at 24 h (in vivo [10]): 3.26 mL/min/kg; solubility at 24 h (physchem [13]): 1270 µg/mL (≈ 3270 µM); Cmax at 24 h (in vivo [28]): 1350 nM; Vd at 24 h (in vivo [29]): 1.88 L/kg
C[C@H]1COc2c(N3CC4CC(F)(F)C[C@@H](N)[C@H]4C3)c(F)cc3cc(C(=O)O)c(=O)n1c23 (single isomer, unassigned) | – | 0.42 | – | 0.18 | – | 0.06 (≈ 0.137 µM) | – | – | – | 5.1 | – | – | – | – | -0.26 | 0.41 | – | – | – | ≤ 0.03 | Tmax at 24 h (in vivo [30]): 2 h; Cmax at 24 h (in vivo [31]): 1700 nM; half-life at 24 h (in vivo [32]): 3.46 h
Cc1c(N2CCC(C3(N)CC3)C2)c(F)cc2c(CC(=O)N(C)C)cc(=O)n(C3CC3)c12 (stereo not drawn) | – | 0.33 | – | 0.57 | – | 1 (≈ 2.34 µM) | – | – | 32.5 | 8.5 | – | 3.3 | 78 | 1.61 | 0.27 | 0.58 | – | 0.26 | 1.17 | 2 (≈ 4.69 µM) | clearance at 24 h (in vivo [10]): 49.3 mL/min/kg
Cc1c(N2CCC(C3(N)CC3)C2)c(F)cc2c(Cc3n[nH]c(=O)o3)cc(=O)n(C3CC3)c12 (stereo not drawn) | – | 0.15 | – | 0.27 | – | 0.5 (≈ 1.14 µM) | – | – | 14.9 | – | – | 1.3 | 51 | 0.99 | 0.24 | 0.4 | – | 0.12 | 0.5 | 1 (≈ 2.28 µM) | pKa (physchem [33]): 7.2
Cc1c(N2CC[C@@H]([C@H](C)N)C2)c(F)cc2cc(C(=O)O)c(=O)n(C3CC3)c12 | 0.015 (≈ 0.0402 µM) | 0.54 | – | 0.54 | > 100 | 2 (≈ 5.36 µM) | 0.25 (≈ 0.669 µM) | 2 (≈ 5.36 µM) | – | 5.2 | – | – | – | – | – | 0.66 | > 100 | – | – | 0.125 (≈ 0.335 µM) | –
Cc1c(N2CC[C@@H](C3(N)CC3)C2)c(F)cc2cc(C(=O)O)c(=O)n(C3CC3)c12 | ≤ 0.03 | 0.3 | 23.1 | 0.21 | > 100 | 1 (≈ 2.59 µM) | 0.25 (≈ 0.649 µM) | 0.5 (≈ 1.3 µM) | – | 5.1 | 0.91 | – | – | – | -0.34 | 0.49 | > 100 | – | – | 0.06 (≈ 0.156 µM) | AUC(0-inf) at 24 h (in vivo [34]): 5.85 µM·h; Cmax at 24 h (in vivo [35]): 1710 nM; half-life at 24 h (in vivo [36]): 2.56 h; Tmax at 24 h (in vivo [37]): 0.67 h; Vd at 24 h (in vivo [38]): 0.75 L/kg; solubility at 24 h (physchem [13]): 623 µg/mL (≈ 1620 µM); bioavailability at 24 h (in vivo [39]): 70%
